Test results reported in US20230339915A1 (Vertex Pharmaceuticals Incorporated, priority 2020, published 2023).
pEC50, pIC50: −log10 of the molar value.

Columns and labels:
[1] = biological target: purified Z-AAT protein from human plasma (Homo sapiens (Human), UniProt P01009, E366K); experiment: Biochemical Assay (Z-AAT Elastase Activity Assay); details: purified Z-AAT pre-incubated with compound 1 hour, then human neutrophil elastase and fluorescent substrate
In short: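 Purified plasma Z-AAT (20 nM) preincubated with compounds 1 h at room temperature, then 3 nM human neutrophil elastase added in PBS + 0.01% BRIJ35 for 30 min to form suicide complex. Residual elastase activity read immediately by fluorescence after adding 300 μM MeOSuc-AAPV-AMC substrate solution.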

[2] = biological target: NL20 human bronchial epithelial cells expressing human Z-AAT (Homo sapiens (Human), UniProt P01009, E366K); experiment: AAT Function Assay (MSD Assay NL20-SI Cell Line); assay type: cell-based; details: functionally active AAT (AAT-hNE complex, MSD) in supernatant of NL20 cells expressing human Z-AAT; read-out: NL20 Functional EC50
In short: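 NL20 bronchial epithelial cells expressing Z-AAT, induced with 0.1 μM doxycycline, were treated with compound overnight. Functional AAT in supernatant was measured by complex formation with excess human neutrophil elastase, captured on anti-AAT plates, detected with Sulfo-tagged anti-elastase on MSD, and quantified against M-AAT standards (0.156–320 ng/mL).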

Sequence of purified Z-AAT protein from human plasma (P01009 25-418 E366K limits assumed): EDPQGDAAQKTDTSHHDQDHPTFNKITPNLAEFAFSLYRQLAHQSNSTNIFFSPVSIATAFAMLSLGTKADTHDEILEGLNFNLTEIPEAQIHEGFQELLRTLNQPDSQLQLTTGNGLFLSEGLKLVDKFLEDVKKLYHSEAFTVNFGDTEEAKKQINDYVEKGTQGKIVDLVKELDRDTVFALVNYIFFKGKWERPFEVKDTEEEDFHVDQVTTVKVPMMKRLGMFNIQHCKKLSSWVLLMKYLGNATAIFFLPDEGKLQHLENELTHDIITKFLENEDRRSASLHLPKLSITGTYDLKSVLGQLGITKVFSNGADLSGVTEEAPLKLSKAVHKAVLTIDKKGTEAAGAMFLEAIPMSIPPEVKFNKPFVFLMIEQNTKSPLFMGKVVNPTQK
Sequence of NL20 human bronchial epithelial cells expressing human Z-AAT (P01009 25-418 E366K limits assumed): as above

Row | SMILES | pIC50 [1] | pEC50 [2]
1 | Cc1cc(-n2c(C(C)C)c([C@H]3C[C@H](C(=O)O)C3)c3cc(O)c(F)cc32)ccc1F [Compound 68] | < 5.30 | 5.70 to 6.30
2 | Cc1cc(-n2c(C(C)C)c([C@H]3C[C@@H](C(=O)O)C3)c3cc(O)c(F)cc32)ccc1F [Compound 69] | < 5.30 | < 5.70
3 | CC(C)c1c(CCC(C)(C)C(=O)O)c2cc(O)ccc2n1-c1ccc(F)cc1 [Compound 70] | < 4.52 | 5.70 to 6.30
4 | CC(C)c1c(CC2(C(=O)O)CC2)c2cc(O)ccc2n1-c1ccc(F)cc1 [Compound 71] | < 5.30 | 5.70 to 6.30
5 | COCC(C)(C)c1c(C2CC(C(=O)O)C2)c2cc(O)ccc2n1-c1ccc(F)c(C)c1 (stereo not drawn) [Compound 72] | < 4.52 | < 5.70
6 | COCC(C)(C)c1c([C@H]2C[C@H](C(=O)O)C2)c2cc(O)ccc2n1-c1ccc(F)c(C)c1 [Compound 73] | < 4.52 | < 5.70
7 | CC(C)c1c([C@H]2C[C@](C)(C(=O)O)C2)c2cc(O)ccc2n1-c1ccc(F)c(Cl)c1 [Compound 75] | < 5.30 | 5.70 to 6.30
8 | CC(C)c1c([C@H]2C[C@@](C)(C(=O)O)C2)c2cc(O)ccc2n1-c1ccc(F)c(Cl)c1 [Compound 76] | < 4.52 | < 5.70
9 | CC(C)c1c([C@H]2C[C@H](C(=O)O)C2)c2cc(O)ccc2n1-c1ccc(F)c(Cl)c1 [Compound 77] | < 5.30 | 5.70 to 6.30
10 | CC(C)c1c([C@H]2C[C@@H](C(=O)O)C2)c2cc(O)ccc2n1-c1ccc(F)c(Cl)c1 [Compound 78] | < 5.30 | < 5.70
11 | CC(C)c1c(C2CC3(CC(C(=O)O)C3)C2)c2cc(O)ccc2n1-c1ccc(F)cc1 (stereo not drawn) [Compound 80] | > 5.70 | 5.70 to 6.30
12 | COCC(C)(C)c1c(CC2(C(=O)O)CC2)c2cc(O)ccc2n1-c1ccc(F)c(C)c1 [Compound 81] | < 4.52 | 5.70 to 6.30
13 | Cc1cc(-n2c([C@@H]3CCOC3)c([C@H]3C[C@H](C(=O)O)C3)c3cc(O)ccc32)ccc1F [Compound 84] | < 4.52 | < 5.70
14 | Cc1cc(-n2c([C@@H]3CCOC3)c([C@H]3C[C@@H](C(=O)O)C3)c3cc(O)ccc32)ccc1F [Compound 85] | < 4.52 | < 5.70
15 | Cc1cc(-n2c([C@H]3CCOC3)c([C@H]3C[C@H](C(=O)O)C3)c3cc(O)ccc32)ccc1F [Compound 86] | < 4.52 | < 5.70
16 | Cc1cc(-n2c([C@H]3CCOC3)c([C@H]3C[C@@H](C(=O)O)C3)c3cc(O)ccc32)ccc1F [Compound 87] | < 4.52 | < 5.70
17 | Cc1cc(-n2c(C(C)C)c(C3COC(C(=O)O)C3)c3cc(O)ccc32)ccc1F (stereo not drawn) [Compound 88] | < 4.52 | < 5.70
18 | Cc1cc(-n2c(C(C)C)c([C@H]3C[C@H](C(=O)O)C3)c3c(F)c(O)ccc32)ccc1F [Compound 89] | 5.30 to 5.70 | 5.70 to 6.30
19 | Cc1cc(-n2c(C(C)C)c([C@H]3C[C@@H](C(=O)O)C3)c3c(F)c(O)ccc32)ccc1F [Compound 90] | < 5.30 | 5.70 to 6.30
20 | CC(C)c1c([C@H]2C[C@@H](C(=O)O)C2)c2cc(O)ccc2n1-c1ccc(F)cc1 [Compound 91] | < 4.52 | < 5.70
21 | CC(C)c1c(C(C)CCC(=O)O)c2cc(O)ccc2n1-c1ccc(F)cc1 (stereo not drawn) [Compound 92] | < 5.30 | < 5.70
22 | Cc1cc(-n2c(C3CC3)c([C@H]3C[C@H](C(=O)O)C3)c3cc(O)ccc32)ccc1F [Compound 93] | < 4.52 | < 5.70
23 | Cc1cc(-n2c(C(C)C)c([C@H]3C[C@@](C)(C(=O)O)C3)c3cc(O)ccc32)ccc1F [Compound 94] | < 4.52 | < 5.70
24 | Cc1cc(-n2c(C(C)C)c([C@H]3C[C@](C)(C(=O)O)C3)c3cc(O)ccc32)ccc1F [Compound 95] | < 5.30 | > 6.30
25 | Cc1cc(-n2c(C(C)C)c(CCCC(=O)O)c3cc(O)ccc32)ccc1F [Compound 96] | < 4.52 | 5.70 to 6.30
26 | Cc1cc(-n2c(C(C)C)c(C3CC4(CC(C(=O)O)C4)C3)c3cc(O)ccc32)ccc1F (stereo not drawn) [Compound 97] | 5.30 to 5.70 | > 6.30
27 | Cc1cc(-n2c(C(C)C)c([C@H]3C[C@@H](C(=O)O)C3)c3cc(O)ccc32)ccc1F [Compound 98] | < 4.52 | < 5.70

Row | SMILES | pIC50 [1] | pEC50 [2]
28 | Cc1cc(-n2c(C3CCOCC3)c([C@H]3C[C@](C)(C(=O)O)C3)c3cc(O)ccc32)ccc1F [Compound 99] | < 5.30 | 5.70 to 6.30
29 | Cc1cc(-n2c(C3CCOCC3)c([C@H]3C[C@@](C)(C(=O)O)C3)c3cc(O)ccc32)ccc1F [Compound 100] | < 4.52 | < 5.70
30 | Cc1cc(-n2c(C3CCOCC3)c(CC3(C(=O)O)CC3)c3cc(O)ccc32)ccc1F [Compound 103] | < 4.52 | < 5.70
31 | Cc1cc(-n2c(C(C)C)c(CC3(C(=O)O)CC3)c3cc(O)ccc32)ccc1F [Compound 104] | < 5.30 | 5.70 to 6.30
32 | COC[C@]1(C(=O)O)C[C@H](c2c(C3CCOCC3)n(-c3ccc(F)c(C)c3)c3ccc(O)cc32)C1 [Compound 106, trans-3-(1-(4-fluoro-3-methylphenyl)-5-hydroxy-2-(tetrahydro-2H-pyran-4-yl)-1H-indol-3-yl)-1-(methoxymethyl)cyclobutane-1-carboxylic acid] | < 4.52 | < 5.70
33 | COC[C@]1(C(=O)O)C[C@@H](c2c(C3CCOCC3)n(-c3ccc(F)c(C)c3)c3ccc(O)cc32)C1 [Compound 107, cis-3-(1-(4-fluoro-3-methylphenyl)-5-hydroxy-2-(tetrahydro-2H-pyran-4-yl)-1H-indol-3-yl)-1-(methoxymethyl)cyclobutane-1-carboxylic acid] | < 4.52 | < 5.70
34 | Cc1cc(-n2c(C3CCOCC3)c([C@H]3C[C@](CF)(C(=O)O)C3)c3cc(O)ccc32)ccc1F [Compound 108] | < 5.30 | 5.70 to 6.30
35 | Cc1cc(-n2c(C3CCOCC3)c([C@H]3C[C@@](CO)(C(=O)O)C3)c3cc(O)ccc32)ccc1F [Compound 109] | < 4.52 | < 5.70
36 | O=C(O)[C@]1(CF)C[C@@H](c2c(C3CCOCC3)n(-c3ccc(F)c(Cl)c3)c3ccc(O)cc32)C1 [Compound 110] | < 4.52 | < 5.70
37 | O=C(O)[C@]1(CF)C[C@H](c2c(C3CCOCC3)n(-c3ccc(F)c(Cl)c3)c3ccc(O)cc32)C1 [Compound 111] | < 4.52 | < 5.70
38 | O=C(O)[C@H]1C[C@H](c2c(C3CCOCC3)n(-c3cc(F)cc(F)c3)c3ccc(O)cc32)C1 [Compound 112] | < 4.52 | < 5.70
39 | O=C(O)[C@H]1C[C@@H](c2c(C3CCOCC3)n(-c3cc(F)cc(F)c3)c3ccc(O)cc32)C1 [Compound 113] | < 4.52 | < 5.70
40 | O=C(O)[C@H]1C[C@H](c2c(C3CCOCC3)n(-c3ccc(F)c(Cl)c3)c3ccc(O)cc32)C1 [Compound 114] | < 4.52 | 5.70 to 6.30
41 | O=C(O)[C@H]1C[C@@H](c2c(C3CCOCC3)n(-c3ccc(F)c(Cl)c3)c3ccc(O)cc32)C1 [Compound 115] | < 4.52 | < 5.70
42 | O=C(O)[C@H]1C[C@H](c2c(C3CCOCC3)n(-c3ccc(F)c(F)c3)c3ccc(O)cc32)C1 [Compound 116] | < 4.52 | < 5.70
43 | O=C(O)[C@H]1C[C@@H](c2c(C3CCOCC3)n(-c3ccc(F)c(F)c3)c3ccc(O)cc32)C1 [Compound 117] | < 4.52 | < 5.70
44 | O=C(O)[C@]1(CF)C[C@@H](c2c(C3CCOCC3)n(-c3ccc(F)cc3)c3ccc(O)cc32)C1 [Compound 118] | < 4.52 | < 5.70
45 | O=C(O)[C@]1(CF)C[C@H](c2c(C3CCOCC3)n(-c3ccc(F)cc3)c3ccc(O)cc32)C1 [Compound 119] | < 4.52 | < 5.70
46 | COC[C@]1(C(=O)O)C[C@@H](c2c(C3CCOCC3)n(-c3ccc(F)c(C)c3)c3ccc(O)cc32)C1 [Compound 121] | < 4.52 | < 5.70
47 | Cc1cc(-n2c(C(C)C)c(CCC(=O)O)c3cc(O)ccc32)ccc1F [Compound 122] | < 4.52 | 5.70 to 6.30
48 | Cc1cc(-n2c(C3CCOCC3)c([C@H]3C[C@](C(=O)O)(C(F)F)C3)c3cc(O)ccc32)ccc1F [Compound 123, cis-1-(difluoromethyl)-3-(1-(4-fluoro-3-methylphenyl)-5-hydroxy-2-(tetrahydro-2H-pyran-4-yl)-1H-indol-3-yl)cyclobutane-1-carboxylic acid] | < 4.52 | < 5.70
49 | CC(C)c1c([C@H]2C[C@@H]2C(=O)O)c2cc(O)c(F)cc2n1-c1ccc(F)cc1 [Compound 125] | < 4.52 | 5.70 to 6.30
50 | Cc1cc(-n2c([C@H]3CCCO3)c([C@H]3C[C@@H]3C(=O)O)c3cc(O)ccc32)ccc1F [Compound 126] | < 4.52 | < 5.70
51 | CCc1c([C@H]2C[C@@H]2C(=O)O)c2cc(O)ccc2n1-c1ccc(F)c(C)c1 [Compound 127] | < 4.52 | < 5.70
52 | Cc1cc(-n2c(C(C)C)c([C@H]3C[C@H]3C(=O)O)c3cc(O)ccc32)ccc1F [Compound 128] | < 4.52 | < 5.70
53 | Cc1cc(-n2c(C3COC3)c([C@H]3C[C@@H]3C(=O)O)c3cc(O)ccc32)ccc1F [Compound 131] | < 4.52 | < 5.70
54 | Cc1cc(-n2c(C3CC3)c([C@H]3C[C@@H]3C(=O)O)c3cc(O)ccc32)ccc1F [Compound 132] | < 4.52 | < 5.70
